Assays:
MAFbx mRNA [1] = assay: MAFbx mRNA levels in AR6 / C2C12.AR cells (qPCR); assay type: cell-based, mouse; conditions: dexamethasone with concurrent testosterone
Protocol: (§1) (A) Rats were administered test agents as indicated in the figure for 7-days, at which time animals were sacrificed and MAFbx expression was determined in gastrocnemius muscles by qPCR. Data are mean values±SEM for at least 8 animals. * p<0.05 vs vehicle, t-test. (B) AR6 cells were seeded into 6-well plates and incubated overnight in growth medium. Medium was replaced with DMEM containing 2% horse serum followed by incubation for an additional 48 hours. Hormones or vehicle (EtOH) were added to the medium and cells were incubated overnight, at which time MAFbx mRNA levels were determined by qPCR and expressed as fold-induction versus levels in cells incubated with EtOH. Data are mean values±SEM for three determinations each performed in triplicate. * p<0.05 vs. EtOH (ANOVA). (C) Effect of testosterone on MAFbx mRNA half-life. C2C12.AR cells were incubated overnight in growth medium supplemented with testosterone or vehicle (EtOH). […] Levels of MAFbx mRNA are expressed as a percentage of those at time zero. […]
(§2) RNA was quantified by absorbance at 260 nm. […] Relative changes in expression were determined using the 2^−ΔΔCt method. Taqman Assay on Demand probes (Applied Biosystems) were used for all assays except rat 18S RNA, which was quantified using the following Assay on Demand Probes: Forward: […] […]

MAFbx mRNA [2] = assay: MAFbx mRNA half-life after actinomycin in C2C12.AR cells; assay type: cell-based, mouse
Protocol: as §1, §2

[3] = Testosterone levels after replacement in rats; assay type: in vivo; conditions: rat, testosterone 0.7 mg/day continuous infusion
Protocol: (§3) Male Wistar rats weighing 200-250 gm (Taconic Farms, Germantown, N.Y.) were provided food and water ad libitum and were housed in a temperature and humidity controlled environment providing a 12:12 hour day-night cycle. For surgical procedures, animals were anesthetized with ketamine/xylazine. The left sciatic nerve was exposed by blunt dissection, and a 1 to 2 mm piece of this nerve was excised just below the level of the femoral head. A sham surgery was performed on the right hind limb in which the sciatic nerve was exposed but was not transected. Twenty eight days later, animals were anesthetized, and Alzet pumps were implanted subcutaneously on the back. […] Testosterone levels after replacement were approximately 15 nM, a high-normal range for rats of this age. Animals were sacrificed 3, 7 or 28 days after implantation of the miniosmotic pumps by inhalation of carbon dioxide. Gastrocnemius muscles were excised and weighed, then flash frozen on dry ice and stored at −80° C.

IGFBP-4 = assay: Chronic denervation: IGFBP-4 mRNA in gastrocnemius (qPCR); assay type: in vivo, rat
Protocol: as §3, with “Animals were sacrificed 3, 7 or 28 days after implantation of the miniosmotic pumps by inhalation of carbon dioxide. Gastrocnemius muscles were excised and weighed, then flash frozen on dry ice and stored at −80° C.” left out
Total RNA was extracted from skeletal muscle (20 mg) by homogenization in guanidine thiocyanate using a Polytron followed by extraction of total RNA with phenol-chloroform as described by (Chomczynski and Sacchi, Anal Biochem 162: 156-159, 1987). […] Total RNA was eluted and quantified by absorbance at 260 nm. […] Levels of gene expression in the denervated muscle were expressed as fold induction relative to muscle from the sham-denervated leg of animals administered vehicle. […] Fold-induction was determined using the 2^−ΔΔCt method, using expression of 18S RNA as the normalization control. […]

IGFBP-5 = assay: Chronic denervation: IGFBP-5 mRNA in gastrocnemius (qPCR); assay type: in vivo, rat
Protocol: as §3
(§4) Total RNA was extracted from skeletal muscle (20 mg) by homogenization in guanidine thiocyanate using a Polytron followed by extraction of total RNA with phenol-chloroform as described by (Chomczynski and Sacchi, Anal Biochem 162: 156-159, 1987). Total RNA was further enriched using RNAeasy minicolumns (Qiagen, Valencia, Calif.). This procedure included digestion of contaminating DNA on the column with RNAse-free DNAse (Qiagen). Total RNA was eluted and quantified by absorbance at 260 nm. One μg of total RNA was used to prepare a cDNA library by reverse transcription (High Capacity cDNA Archive Kit, Applied Biosystems). Libraries were diluted 25-fold with water. Real time PCR was performed Taqman 2×PCR buffer (Applied Biosystems) using an Applied Biosystems 7500 thermocycler. Levels of gene expression in the denervated muscle were expressed as fold induction relative to muscle from the sham-denervated leg of animals administered vehicle. […] Fold-induction was determined using the 2^−ΔΔCt method, using expression of 18S RNA as the normalization control. […]

myogenin = assay: Chronic denervation: myogenin mRNA in gastrocnemius (qPCR); assay type: in vivo, rat
Protocol: as §3
Total RNA was extracted from skeletal muscle (20 mg) by homogenization in guanidine thiocyanate using a Polytron followed by extraction of total RNA with phenol-chloroform as described by (Chomczynski and Sacchi, Anal Biochem 162: 156-159, 1987). Total RNA was further enriched using RNAeasy minicolumns (Qiagen, Valencia, Calif.). This procedure included digestion of contaminating DNA on the column with RNAse-free DNAse (Qiagen). Total RNA was eluted and quantified by absorbance at 260 nm. One μg of total RNA was used to prepare a cDNA library by reverse transcription (High Capacity cDNA Archive Kit, Applied Biosystems). Libraries were diluted 25-fold with water. Real time PCR was performed Taqman 2×PCR buffer (Applied Biosystems) using an Applied Biosystems 7500 thermocycler. Levels of gene expression in the denervated muscle were expressed as fold induction relative to muscle from the sham-denervated leg of animals administered vehicle. […] Fold-induction was determined using the 2^−ΔΔCt method, using expression of 18S RNA as the normalization control. Primers and probes used for 18S RNA, MuRF1 and myostatin were obtained through the assays by Design service of Applied Biosystems and had the sequences are shown in Table 3; probes were 5′ labeled with FAM and 3′ modified with a non-fluorescent quencher. All other primer-probe combinations used were those contained in ABI Assay on Demand kits.

GADD45 = assay: Chronic denervation: GADD45 mRNA in gastrocnemius (qPCR); assay type: in vivo, rat
Protocol: as §3, §4

MAFbx = assay: Chronic denervation: MAFbx mRNA in gastrocnemius (qPCR); assay type: in vivo, rat
Protocol: as §3, §4

[4] = denervated muscle, any time tested

In the case of `C[C@]12CC[C@H]3[C@@H](CCC4=CC(=O)CC[C@@]43C)[C@@H]1CC[C@@H]2O` [testosterone], the “MAFbx mRNA level versus cells exposed to ethanol only” value (MAFbx mRNA [1]) is reported as “not significantly different”, the “half-life of MAFbx mRNA versus absence of testosterone” value (MAFbx mRNA [2]) is reported as “not significantly different” and the “testosterone levels after replacement” value [3] is reported as “approximately 15 nM”.

For `C[C@]12CC[C@H]3[C@@H](CCC4=CC(=O)CC[C@@H]43)[C@@H]1CC[C@@H]2O` [nandrolone], the IGFBP-4 expression (IGFBP-4; [4]) was “did not significantly alter”, the IGFBP-4 expression (IGFBP-4; sham-denervated muscle) was “did not appreciably alter” and the IGFBP-5 expression (IGFBP-5; denervated muscle, 56-days) was “tended to reduce”. For the same compound, the IGFBP-5 expression (IGFBP-5; [4]) was “did not significantly alter”, the IGFBP-5 expression (IGFBP-5; sham-denervated muscle) was “did not appreciably alter” and the myogenin expression (myogenin; denervated muscle, 3 or 7-days administration) was “No effects”. The “fall in myogenin expression” value (myogenin; denervated muscle, 28-days infusion) was 32%, the “elevation of myogenin expression” value (myogenin; muscle not stated (contrasted with denervated muscle), day 28 of the infusion) was “approximately 2 fold” and the myogenin expression (myogenin; muscle not stated, first 7-days after starting administration) was “did not alter”. For the same compound, the GADD45 expression (GADD45; denervated muscle, after 3 and 7-days, not significant) was “tended to reduce”, the “effect on GADD45 expression” value (GADD45; denervated muscle, after 28-days infusion) was “lost” and the GADD45 expression (GADD45; sham-denervated muscle) was “no appreciable effect”. The MAFbx expression (MAFbx; denervated muscle, 7-days infusion (35 days after denervation)) was “tended to be reduced”, the “reduction of MAFbx expression” value (MAFbx; denervated muscle, 28 days administration) was 35% and the MAFbx expression (MAFbx; sham-denervated muscle) was “did not alter”.
